Experimental data from patent US11396524B2, “Hydrate crystal of 3′,3′-cGAMP” (Yamasa Corporation, priority 2018, dated 2022).

Legend:
Type in all cases: physicochemical
[1] = Hygroscopicity test: standing 3 days in desiccator at 30° C. and 93% humidity, moisture content by the Karl-Fischer method; settings: for Moisture content after standing / Moisture content before standing: Karl-Fischer method; for Moisture content after standing: after standing 3 days at 30° C., humidity 93% (saturated potassium nitrate desiccator); for Moisture content before standing: before standing at 30° C.; for Moisture content before standing / Δ Moisture content: humidity 93%; for Δ Moisture content: after minus before standing 3 days at 30° C.
Procedure: A hydrate crystal of 3′,3′-cGAMP according to the invention may be either a crystal of alkali metal salt or a crystal of free acid. Either is less hygroscopic than existing powder. Thus, each is easy to handle in various purposes and is thus useful as a pharmaceutical raw material or the like. Note that the wording “less hygroscopic” herein refers to the case where after (A) allowed to stand for 1 day under conditions at a temperature of 30° C. and a humidity of 43% and then (B) allowed to stand for 3 days under conditions at a temperature of 30° C. and a humidity of 93%, a substance of interest has a moisture content of 25% or less at the end point (B) and the difference in the moisture content between the end point (A) and the end point (B) is within ±5%.
The crystals obtained in the above Examples 1 and 2 as well as the lyophilized product obtained in the Reference Example were allowed to stand for 3 days in a desiccator filled with a saturated potassium nitrate solution and kept at a temperature of 30° C. and a humidity of 93%. The moisture content was compared between before and after the standing by the Karl-Fischer method.

[2] = Stability test, crystals stored at 60° C.
Procedure: Meanwhile, the crystals were stored at 60° C. and subjected to a stability test.

[3] = Crystal moisture content by the Karl-Fischer method; settings: for Moisture content after storage at a humidity of 43% for 1 day: stored at humidity 43% for 1 day
Procedure: In Example 1, the crystals of 3′,3′-cGAMP sodium salt were prepared. Here, the crystal moisture content immediately after drying was measured by the Karl-Fischer method. As a result, the moisture content was 7.9%. […] In addition, the crystals were stored at a humidity of 43% for 1 day so as to stabilize their moisture content. The moisture content was likewise measured.
The crystals of 3′,3′-cGAMP free acid as prepared in Example 2 were stored at a humidity of 43% for 1 day so as to stabilize their moisture content. Then, the crystal moisture content was measured by the Karl-Fischer method.

Row | Substance | Moisture content after standing [1] [%] | Moisture content before standing [1] [%] | Δ Moisture content [1] [%] | Stability under high temperature conditions (decomposition of 3′,3′-cGAMP) [2] | Moisture content after storage at a humidity of 43% for 1 day [3] [%] | Moisture content after standing ([1]; sodium salt) [%] | Δ Moisture content ([1]; sodium salt) | Moisture content immediately after drying ([3]; immediately after drying) [%] | Moisture content before standing ([1]; sodium salt) [%]
1 | 3′,3′-cGAMP free acid [Example 2] | 23.09 | 24.71 | −1.62 | not apparently decomposed | 24.7 |  |  |  | 
2 | 3′,3′-cGAMP sodium salt [Example 1] |  | 18.10 |  | not apparently decomposed | 18.1 | 21.60 | +3.50% | 7.9 | 
3 | 3′,3′-cGAMP sodium salt [Reference Example, reference compound] |  |  |  |  |  | 36.01 | +23.07% |  | 12.94
